# Results taken from patent US4826873A, “2,3-dihydroxy-3-phenyl-N-(2-phenyl-ethyl)-propionic acid amides derivatives thereof” (priority 1986, dated 1989).
# What was measured:
# [1] = tested on: diene conjugates in liver microsomes of CCl4-intoxicated mice; assay: CCl4-initiated lipid peroxidation, diene conjugates in vivo (Table 6); set-up: species or system mice (male Kunming strain); conditions: 250 mg/kg, 1 ml/kg CCl4
# Method: (§1) Male Kunming strain mice weighing 18-22 grams were used throughout the experiments. The compound to be tested was suspended in 5% Tween 80 and given orally by gavage. The vehicle of 5% Tween 80 solution was administered to control mice via the same route. In the vitro experiments,the compound was dissolved in dimethylformamide and added directly into the incubation mixture.
# (§2) CCl4 hepatotoxicity has been considered to be due to formation of free radicals which initiate lipid peroxidation or covalent binding to macromolecules of microsomes. Thus, the structures and function of cell membranes were destroyed. The effect of the compound on CCl4 induced lipid peroxidation (malonic dialdehyde, MDA, in vitro, and diene conjugates in vivo) and ^14 CCl4 covalent binding to lipids and proteins of microsomes were investigated.
# Diene conjugates: Mice were given two doses of 250 mg/kg of the compound on the first day and followed by the same dose on the second day and then received an injection of 1 ml/kg of CCl4. The mice were killed 1 h after the CCl4 injection. The diene conjugates in liver microsomes were extracted with chloroform-methanol (2:1) and washed with methanol 0.9% NaCl solution. The absorption of diene conjugates in the chloroform layer at 243 nm was measured with spectrophotometer.
# [2] = tested on: pentobarbital sleeping time in mice; assay: Pentobarbital sleeping time in mice (Table 8); format: in vivo, mice (male Kunming strain); conditions: for Sleeping time (X ± SE): 250 mg/kg, 10 per group, control 71 ± 7, P <0.01, in min (unit assumed)
# Method: as §1
# (§3) In another experiment, mice were given a dose of 250 mg/kg of the compound. Sodium pentobarbital (50 mg/kg) was injected ip 1 and 24 h after administration of the compound. The sleeping time was estimated by recording the interval of disappearance and recovery of righting reflex. […] It means that the prolongation of pentobarbital sleeping time by the compound was due to the inhibition of liver drug metabolism enzyme.
# [3] = tested on: thioacetamide hepatotoxicity in mice; assay: Protective action against thioacetamide hepatotoxicity in mice (Table 4); format: in vivo, mice (male Kunming strain)
# Method: as §1
# (§4) The parameters adopted for hepatotoxicicity included serum tranaminase (SGPT), liver triglycerides, and pathological examination of liver tissues. The liver lesions were scored mainly by the extent of inflammation and necrosis and graded from 0 to 4.
# In the experiment of thioacetamide hepatotoxicity, mice were treated according to the procedure of CCl4 intoxication as described above except that thioacetamide 50 mg/kg was injected instead of CCl4.
# [4] = tested on: CCl4 hepatotoxicity in mice; assay: Protective action against CCl4 (0.1%) hepatotoxicity in mice (Table 3); format: in vivo, mice (male Kunming strain); conditions: for SGPT (± SE): two doses, 9 per group, control 3016 ± 23; for SGPT (± SE) / Liver lipids: CCl4 0.1% 10 ml/kg i.p.; for Liver lipids: control 21.0 ± 4.2; for decreasing SGPT level and liver injuries (in words): CCl4 0.1% ip
# Method: as §1, §4
# In another experiment, mice were first administered two doses of the compound and injected ip 10 ml/kg of 0.1% CCl4 in vegetable oil 24 h after administration of the second dose.
# [5] = tested on: aminopyrine demethylase; assay: Hepatic aminopyrine demethylase in mice (Table 7); format: in vivo, mice (male Kunming strain)
# Method: as §1
# (§5) The liver microsomal cytochrome P-450 plays a key role in the detoxification of xenobiotics. […] Mice were administered 250 mg/kg of the compound once daily for 3 days. The control mice received the vehicle. The mice were killed after fasting overnight. Liver microsomes were prepared and microsomal monooxygenases were determined.
# [6] = tested on: CCl4 hepatotoxicity in mice; assay: Therapeutic effect on CCl4 (0.15%) hepatotoxicity in mice (Table 2); format: in vivo, mice (male Kunming strain)
# Method: as §1, §4
# In the experiments of anti-CCl4 hepatotoxicity, mice were first injected 10 ml/kg of 0.15% CCl4 in vegetable oil every other day for three doses. The treatment of mice with the compound (250 mg/kg daily) started from the second to fifth day after the first injection of CCl4. The determination of SGPT and pathological examination of liver tissues were performed on day 7 of the experiment.
# [7] = tested on: microsomal lipids; assay: 14CCl4 covalent binding to microsomal lipids; format: biochemical, mice; conditions: 1 mM, NADPH-reduced liver microsomes
# Method: as §1, §2
# (§6) The condition of incubation was similar to that of MDA production. The compound was pre-incubated with NADPH-reduced liver microsomes for 10 minutes. The final concentration of the compound was 1 mM. ^14 CCl4 0.5 uci was added to the incubation mixture. Incubation was continued for another 60 minutes. The radio-activity of ^14 CCl4 in microsomal lipids and proteins was separated by the method of extraction of diene conjugates and counted by liquid scintillation.
# [8] = tested on: NADPH-cytochrome c reductase; assay: Hepatic NADPH-cytochrome c reductase in mice (Table 7); format: in vivo, mice (male Kunming strain)
# Method: as §1, §5
# [9] = tested on: hepatic microsomal cytochrome P-450; assay: Induction of hepatic microsomal cytochrome P-450 in mice (Table 7); format: in vivo, mice (male Kunming strain); conditions: for hepatic cytochrome P-450 (in words): 250 mg/kg once daily, 3 days
# Method: as §1, §5, §3
# [10] = tested on: barbital sleeping time in mice; assay: Barbital sleeping time in mice (Table 8); format: in vivo, mice (male Kunming strain)
# Method: as §1
# as §3, with “Sodium pentobarbital (50 mg/kg) was injected ip 1 and 24 h after administration of the compound.” left out
# [11] = tested on: cytochrome b5; assay: Hepatic cytochrome b5 in mice (Table 7); format: in vivo, mice (male Kunming strain)
# Method: as §1, §5
# [12] = tested on: acetaminophen hepatotoxicity in mice; assay: Anti-acetaminophen hepatotoxicity experiment in mice; format: in vivo, mice (male Kunming strain); conditions: 250 mg/kg two doses first day and same dose second day; acetaminophen 150 mg/kg ip
# Method: as §1, §4
# In the anti-acetaminophen hepatotoxicity experiment, mice received two doses (250 mg/kg) of the compound on the first day and the same dose on the second day. A dose of 150 mg/kg of acetaminophen was injected ip 6 h after the last dose of the compound, SGPT was determined and liver tissues were examined 20 h after acetaminophen injection.
# [13] = tested on: serum and liver transaminase (GPT); assay: Effect on serum and liver transaminase (GPT) levels of normal mice (Table 5); format: in vivo, mice (male Kunming strain)
# Method: as §1
# Groups of mice were administered the vehicle or 250 mg/kg of the compound once daily for 7 consecutive days. The serum and liver GPT were determined 24 h after the last dose administration.
# [14] = tested on: CCl4 intoxicated mice; assay: Effect on SGPT level of CCl4-intoxicated mice (pretreatment, Table 1); format: in vivo, mice (male Kunming strain)
# Method: as §1, §4
# Mice were divided into several groups.
# The control group received the vehicle. The other groups were given two doses of the compound (250 mg/kg) at an interval of 8 h, respectively. All the mice were injected ip 10 ml/kg of 0.1% CCl4 in vegetable oil 24 h after the last administration of the compound. The mice were fasted for 16 h and sacrificed by decapitation. SGPT and liver lipids were determined. A piece of liver was processed into sectins for pathological examination.
# [15] = tested on: liver; assay: Liver weight and microsomal protein content (Table 7); format: in vivo, mice (male Kunming strain)
# Method: as §1, §5
# [16] = tested on: benzo(a)pyrene hydroxylase; assay: Hepatic AHH / benzo(a)pyrene hydroxylase in mice (Table 7); format: in vivo, mice (male Kunming strain)
# Method: as §1, §5
# [17] = tested on: microsomal proteins; assay: 14CCl4 covalent binding to microsomal proteins; format: biochemical, mice; conditions: 1 mM, NADPH-reduced liver microsomes
# Method: as §1, §2, §6
# [18] = tested on: CCl4-initiated lipid peroxidation of liver microsomes (MDA); assay: CCl4-initiated lipid peroxidation of liver microsomes, MDA formation in vitro (Table 6); format: biochemical, mice (phenobarbital-induced); conditions: 1 mM compound
# Method: as §1, §2
# MDA formation: The compound was pre-incubated with NADPH-reduced liver microsomes from phenobarbital-induced mice at 37° C. for 15 minutes, 10 ul of CCl4 (diluted with 20 volume of ethanol) was added into the incubation mixture, reincubated for 20 minutes. The production of MDA was determined by the method of thiobarbituric acid.
# [19] = listed as compound of the general formula (I), R1 =H, R2 =CH3
smiles,measurement,setting,value
"CN(CCc1ccccc1)C(=O)C(O)C(O)c1ccccc1 (stereo not shown) [Compound, 2,3-dihydroxy-N-methyl-3-phenyl-N-(2-phenylethyl)-propionic acid amide]",diene conjugates production in livers (in words),[1]; two doses first day and same dose second day,would not inhibit diene conjugates production
same,Diene conjugates,"[1]; in vivo, number of determinations 8, control 55.8 ± 2.3",54.8 ± 3.3 OD × 100/g liver
same,Sleeping time (X ± SE),[2]; 1 h before pentobarbital 50 mg/kg ip,132 ± 13
same,Sleeping time (X ± SE),[2]; 24 h before pentobarbital 50 mg/kg ip,45 ± 6
same,pentobarbital sleeping time (in words),[2]; compound 1 h prior to pentobarbital,prolonged markedly
same,pentobarbital sleeping time (in words),[2]; compound 24 h before pentobarbital,shortened significantly
same,SGPT (± SE),"[3]; 250 mg/kg × 2, thioacetamide 50 mg/kg ip, 9 per group, control 1696 ± 231, footnote <0.05",1045 ± 166 unit %
same,Liver lipids (± SE),"[3]; 250 mg/kg × 2, thioacetamide 50 mg/kg ip, control 61 ± 11.7",59 ± 11.3 mg/g
same,"protection against thioacetamide hepatotoxicity (conclusion, in words)","[3]; mouse, in vivo",protected against thioacetamide hepatotoxicity
same,"effect on SGPT levels, thioacetamide hepatotoxicity (in words)",[3]; thioacetamide 50 mg/kg,markedly lowered the SGPT levels
same,SGPT (± SE),[4]; 125 mg/kg,2727 ± 162 unit %
same,Liver lipids,[4]; 125 mg/kg,21.0 ± 3.8 mg/g
same,decreasing SGPT level and liver injuries (in words),[4]; 125 mg/kg,without effect
same,SGPT (± SE),"[4]; 250 mg/kg, footnote <0.01",2270 ± 221 unit %
same,Liver lipids,[4]; 250 mg/kg,22.5 ± 5.5 mg/g
same,decreasing SGPT level and liver injuries (in words),[4]; 250 mg/kg,effective for decreasing SGPT level and liver injuries
same,"Liver lesions, Inflammation (Grade)","[4]; 250 mg/kg, graded from 0 to 4, control 1.70",0.16 Grade
same,"Liver lesions, Necrosis (Grade)","[4]; 250 mg/kg, graded from 0 to 4, control 2.33",0.72 Grade
same,Aminopyrine demethylase,"[5]; 250 mg/kg day × 3, control 81 ± 63, P <0.01",107 ± 5.8 nmol HCHO/min/mg protein
same,aminopyrine demethylase activity (in words),"[5]; 250 mg/kg once daily, 3 days",increased significantly
same,effect on liver lesions (in words),"[6]; 250 mg/kg daily, day 7 examination",no effect on liver lesions
same,SGPT lowering action (in words),"[6]; 250 mg/kg daily, second to fifth day after first CCl4",significant SGPT lowering action
same,SGPT (x ± SE),"[6]; 250 mg/kg/day × 4, CCl4 0.15% in vegetable oil 10 ml/kg × 3, 8 per group, control 2695 ± 110, P <0.01",1801 ± 312 unit %
same,covalent binding of 14CCl4 to microsomal lipids (in words),[7],not inhibited
same,NADPH-cytochrome C reductase,"[8]; 250 mg/kg day × 3, control 103 ± 2.5, P <0.01",148 ± 2.5 nmol cytochrome c reduced/min/
same,NADPH-cytochrome c reductase activity (in words),"[8]; 250 mg/kg once daily, 3 days",increased significantly
same,Cytochrome P-450,"[9]; 250 mg/kg day × 3, control 0.87 ± 0.07, P <0.01",1.23 ± 0.06 nmol/mg protein
same,hepatic cytochrome P-450 (in words),[9],increased significantly
same,hepatic cytochrome P-450 (in words),[9]; [19],inducing action on hepatic cytochrome p-450
same,biphasic actions on hepatic microsomal cytochrome p-450 (in words),[9]; concluded from barbiturate sleeping times,inhibition followed by induction
same,Sleeping time (X ± SE),"[10]; 1 h before barbital 200 mg/kg, 10 per group, control 197 ± 27, P >0.05",172 ± 13
same,barbital sleeping time (in words),[10]; prior administration of compound,did not affect sleeping time
same,Cytochrome b5,"[11]; 250 mg/kg day × 3, control 0.15 ± 0.01, P >0.05",0.16 ± 0.016 nmol/mg protein
same,cytochrome b5 (in words),"[11]; 250 mg/kg once daily, 3 days",increased significantly
same,anti-acetaminophen hepatotoxicity (in words),[12],inactive
same,SGPT level of normal mice (in words),"[13]; 250 mg/kg once daily, 7 days",slightly higher than that of the control but the difference was not significant
same,SGPT (± SE),"[13]; normal mice, 250 mg/kg/day × 7, 8 per group, control 217 ± 17.5",272 ± 27.8 unit %
same,"LGPT (liver GPT, ± SE)","[13]; normal mice, 250 mg/kg/day × 7, 8 per group, control 260 ± 11.6",234 ± 13.6 unit %
same,SGPT (X ± SE),"[14]; 250 mg/kg × 2, oral, 0.1% CCl4 10 ml/kg ip 24 h later, 9 per group, control 1678 ± 261, P <0.05",727 ± 266 unit %
same,effect on elevated SGPT of CCl4-intoxicated mice (in words),"[14]; 250 mg/kg × 2, CCl4 ip",significantly decreased the elevated SGPT
same,"hepatoprotective action against CCl4 (conclusion, in words)","[14]; mouse, in vivo",has hepatoprotective action against CCl4
same,Liver weight,"[15]; 250 mg/kg day × 3, 6 per group, control 4.0 ± 0.2, P >0.05",4.3 ± 0.2 g %
same,Microsomal protein,"[15]; 250 mg/kg day × 3, control 6.3 ± 0.3, P >0.05",7.0 ± 0.5 mg/g liver
same,increase of liver size (in words),"[15]; 250 mg/kg once daily, 3 days",not seen
same,increase of microsomal protein content (in words),"[15]; 250 mg/kg once daily, 3 days",not seen
same,AHH,"[16]; 250 mg/kg day × 3, control 2.6 ± 0.4, P <0.01",6.2 ± 0.42 nmol/min/mg protein
same,benzo(a)pyrene hydroxylase activity (in words),"[16]; 250 mg/kg once daily, 3 days",increased significantly
same,covalent binding of 14CCl4 to microsomal proteins (in words),[17],not inhibited
same,Inhibition of MDA,[18],16.3%
same,MDA production / lipid peroxidation of microsomes induced by CCl4 (in words),[18],inhibited MDA production initiated by CCl4 in vitro
same,MDA production / lipid peroxidation of microsomes induced by CCl4 (in words),[18]; [19],could inhibit lipid peroxidation
same,MDA,"[18]; number of determinations 3, control 35.5",29.7 ± 4 OD × 100/1.5 mg
